# Assay results published in the supplement of paper PMC10307832.
# Tests used:
# Experiment in all cases: relative viability (nuclei count vs DMSO), 5 days (fraction); higher = more cells survive
# Wnt-C59 + Linsitinib = compound: CC1=NC=CC(=C1)C2=CC=C(C=C2)CC(=O)NC3=CC=C(C=C3)C4=CN=CC=C4 [Wnt-C59] + C[C@]1(O)C[C@@H](c2nc(-c3ccc4ccc(-c5ccccc5)nc4c3)c3c(N)nccn32)C1 [Linsitinib] (partner 1 µM)
# In short: (§1)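 Values are medians from duplicate plates. Each reflects relative viability, defined as the nuclei count of treated wells over that of vehicle wells. Lung cancer cell lines in 1536-well plates were pin-tool dosed one day after seeding with one drug alone or with a fixed anchor-drug dose plus five library-drug doses (not always all listed) in √10 steps, then fixed, stained and imaged at 4× after 5 days.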
# Wnt-C59 + Bortezomib = compound: CC1=NC=CC(=C1)C2=CC=C(C=C2)CC(=O)NC3=CC=C(C=C3)C4=CN=CC=C4 [Wnt-C59] + CC(C)C[C@H](NC(=O)[C@H](Cc1ccccc1)NC(=O)c1cnccn1)B(O)O [Bortezomib] (partner 0.002 µM)
# In short: as §1
# Lapatinib + Tozasertib = compound: CS(=O)(=O)CCNCc1ccc(-c2ccc3ncnc(Nc4ccc(OCc5cccc(F)c5)c(Cl)c4)c3c2)o1 [Lapatinib] + Cc1cc(Nc2cc(N3CCN(C)CC3)nc(Sc3ccc(NC(=O)C4CC4)cc3)n2)n[nH]1 [Tozasertib] (partner 0.1 µM)
# In short: as §1
# Wnt-C59 + Luminespib = compound: CC1=NC=CC(=C1)C2=CC=C(C=C2)CC(=O)NC3=CC=C(C=C3)C4=CN=CC=C4 [Wnt-C59] + CCNC(=O)c1noc(-c2cc(C(C)C)c(O)cc2O)c1-c1ccc(CN2CCOCC2)cc1 [Luminespib] (partner 0.01 µM)
# In short: as §1
Cell Line,relative viability (Wnt-C59 + Linsitinib; first compound 0.001 µM),relative viability (Wnt-C59 + Linsitinib; first compound 0.01 µM),relative viability (Wnt-C59 + Linsitinib; first compound 0.03162 µM),relative viability (Wnt-C59 + Linsitinib; first compound 0.1 µM),relative viability (Wnt-C59 + Bortezomib; first compound 0.001 µM),relative viability (Wnt-C59 + Bortezomib; first compound 0.01 µM),relative viability (Wnt-C59 + Bortezomib; first compound 0.03162 µM),relative viability (Wnt-C59 + Bortezomib; first compound 0.1 µM),relative viability (Lapatinib + Tozasertib; first compound 0.02 µM),relative viability (Lapatinib + Tozasertib; first compound 0.06325 µM),relative viability (Lapatinib + Tozasertib; first compound 0.2 µM),relative viability (Lapatinib + Tozasertib; first compound 0.6325 µM),relative viability (Lapatinib + Tozasertib; first compound 2 µM),relative viability (Wnt-C59 + Luminespib; first compound 0.001 µM),relative viability (Wnt-C59 + Luminespib; first compound 0.01 µM),relative viability (Wnt-C59 + Luminespib; first compound 0.03162 µM),relative viability (Wnt-C59 + Luminespib; first compound 0.1 µM)
NCI-H1734,0.858,0.779,0.916,0.911,0.906,0.778,0.992,0.914,0.272,0.276,0.274,0.242,0.232,0.233,0.241,0.196,0.138
NCI-H1666,0.941,0.682,0.885,0.874,0.797,0.749,0.807,0.89,0.598,0.577,0.573,0.453,0.36,1.05,1.04,1.04,1.03
BEN,0.915,0.948,1.02,0.88,0.821,0.88,1.03,0.878,,0.513,0.51,0.515,0.351,0.331,0.423,0.457,0.598
ChaGo-K-1,,,,,0.767,,0.892,1.16,0.218,0.194,0.206,0.2,0.208,0.672,0.71,0.765,0.543
SK-MES-1,1.11,1.1,1.02,1.08,,,,,0.894,0.996,1.07,0.943,0.495,0.88,0.792,0.78,0.739
NCI-H1563,1.24,1.2,1.34,1.13,0.863,0.917,0.901,0.835,,,,,,0.498,0.539,0.565,0.528
HCC-78,0.507,0.498,0.576,0.584,0.571,0.515,0.609,0.422,,0.327,0.407,0.377,0.328,,,,
Calu-6,0.89,0.9,0.987,0.955,0.924,0.99,1.05,1.07,,,,,,,,,
EBC-1,0.927,0.912,0.925,0.814,0.638,0.617,0.394,0.591,,,,,,,,,
NCI-H1395,0.972,1.06,1.09,1.03,,,,,0.716,0.774,0.701,0.683,0.677,0.702,0.589,0.762,0.773
NCI-H522,,,,,,,,,,0.433,0.523,0.561,0.513,1.63,1.2,0.979,1.13
NCI-H1623,,,,,,,,,0.423,0.344,,0.379,0.154,0.594,0.413,0.544,0.481
IA-LM,0.67,0.549,0.621,0.533,0.942,0.713,0.91,0.724,,,,,,,,,
NCI-H1299,0.965,1.07,0.961,1,1.02,1.06,1.02,1.01,,,,,,,,,
NCI-H1793,0.926,0.729,0.875,0.865,,,,,,0.286,0.213,0.185,0.142,0.176,,0.204,0.201
NCI-H2170,,,,,,,,,0.704,0.553,0.565,0.403,0.169,0.583,0.722,0.758,0.655
NCI-H1650,,,,,0.21,0.219,0.205,0.219,0.354,0.325,0.399,0.288,0.168,0.223,0.197,0.203,0.214
NCI-H1944,1.13,1.11,1.26,1.12,,,,,0.245,0.216,0.239,0.205,0.181,0.802,0.758,0.769,0.652
NCI-H358,0.83,0.641,0.923,0.682,,,,,0.0946,0.0876,0.0913,0.078,0.0817,0.315,0.341,0.291,0.475
HCC-366,0.697,0.582,0.717,0.595,1.06,0.98,1.16,1.07,,0.0794,0.0593,0.0794,0.0545,,,,
LK-2,0.529,0.708,0.563,0.582,,,,,,,0.174,0.146,0.19,0.199,0.159,0.174,0.213
NCI-H1703,0.721,0.631,0.739,0.899,0.417,0.271,0.331,0.42,,,,,,,,,
A549,0.568,0.498,0.555,0.504,,,,,,,,,,,,,
NCI-H2342,,,,,,,,,0.495,0.489,0.455,0.538,0.354,0.692,0.658,0.806,0.809
NCI-H1792,0.557,0.5,0.465,0.549,0.959,0.963,1.04,0.946,,,,,,0.515,0.388,,0.656
SW 900,,,,,,,,,,0.35,0.374,0.298,0.276,0.159,0.179,0.172,0.197
NCI-H1648,,,,,,,,,0.361,0.215,0.689,0.361,0.325,,,,
